Values quoted from earlier work in patent US20140171495A1, “STABLE PHARMACEUTICAL FORMULATION OF CABAZITAXEL” (Yung Shin Pharm.Ind. Co., Ltd., priority 2012, published 2014).

CO[C@H]1C(=O)[C@]2(C)[C@@H](OC)C[C@H]3OC[C@@]3(OC(C)=O)[C@H]2[C@H](OC(=O)c2ccccc2)[C@]2(O)C[C@H](OC(=O)[C@H](O)[C@@H](NC(=O)OC(C)(C)C)c3ccccc3)C(C)=C1C2(C)C [Cabazitaxel, (2α,5β,7β,10β,13α)-4-acetoxy-13-({(2R,3S)-3[(tertbutoxycarbonyl)amino]-2-hydroxy-3-phenylpropanoyl}oxy)-1-hydroxy-7,10-dimethoxy-9-oxo-5,20-epoxytax-11-en-2-yl benzoate-propan-2-one(1:1)]
solubility in alcohol (alcohol): soluble | solubility in water (water): practically insoluble
